Measured values as given in patent US7705040B2, “Reagents for highly specific detection of peroxynitrite” (The University of Hong Kong, priority 2005, dated 2010).

Columns and labels:
[1] = Specificity of probe with different reactive oxygen species: fluorescence change with ONOO−
Procedure: (§1) Compound ss-6 obtained in Example 1 was dissolved in CH3CN to a concentration of 2 mM, and then the solution was added a 100 mM sodium phosphate buffer (pH 7.4) for dissolution to a final concentration of 20 μM. The excitation spectrum and the fluorescence spectrum of the 20 μM ss-6 solution were measured using a Perkin Elmer LS50 fluorescence spectrometer. Slit width was 5 nm for both the excitation spectrum and the fluorescence spectrum, and the photomultiplier voltage was 775 V. The measurement was carried out at the excitation wavelength of 515 nm. […]
(§2) Compound ss-6 obtained in Example 1 was dissolved in CH3CN to a concentration of 2 mM, and then the solution was added with a 100 mM sodium phosphate buffer (pH 7.4) for dissolution at a final concentration of 20 μM. […] The changes in fluorescence intensity before and after the treatment were measured. The fluorescence intensity was measured under the same conditions as those in Example 2. Each concentration of the fluorescence probe was 20 μM (a 100 mM sodium phosphate buffer, pH 7.4).
(§3) Compound ss-12 obtained in Example 5 was dissolved in CH3CN to a concentration of 2 mM, and then the solution was added with a 100 mM sodium phosphate buffer (pH 7.4) for dissolution at a final concentration of 20 μM. […] The changes in fluorescence intensity before and after the treatment were measured. […]

[2] = Specificity of probe with different reactive oxygen species: fluorescence change with SIN-1; conditions: ss-6 20 μM, 100 mM sodium phosphate buffer pH 7.4; 10 equiv; SIN-1 generates ONOO− slowly in buffer
Procedure: (§4) Compound ss-6 obtained in Example 1 was dissolved in CH3CN to a concentration of 2 mM, and then the solution was added a 100 mM sodium phosphate buffer (pH 7.4) for dissolution to a final concentration of 20 μM. The excitation spectrum and the fluorescence spectrum of the 20 μM ss-6 solution were measured using a Perkin Elmer LS50 fluorescence spectrometer. Slit width was 5 nm for both the excitation spectrum and the fluorescence spectrum, and the photomultiplier voltage was 775 V. The measurement was carried out at the excitation wavelength of 515 nm.
(§5) Compound ss-6 obtained in Example 1 was dissolved in CH3CN to a concentration of 2 mM, and then the solution was added with a 100 mM sodium phosphate buffer (pH 7.4) for dissolution at a final concentration of 20 μM. 50 μL of different reactive oxygen species (10 equiv) were added independently to 5 mL of the corresponding ss-6 solution. The changes in fluorescence intensity before and after the treatment were measured. The fluorescence intensity was measured under the same conditions as those in Example 2. Each concentration of the fluorescence probe was 20 μM (a 100 mM sodium phosphate buffer, pH 7.4).

[3] = Specificity of probe with different reactive oxygen species: fluorescence change with hydroxyl radical; conditions: ss-6 20 μM, phosphate buffer pH 7.4; Fe(ClO4)2 (25 μL, 40 mM) and H2O2 (25 μL, 80 mM)
Procedure: as §4, §5

[4] = Specificity of probe with different reactive oxygen species: fluorescence change with singlet oxygen; conditions: ss-6 20 μM, phosphate buffer pH 7.4; 3-(1,4-dihydro-1,4-epidioxy-1-napthyl)propionic acid at 37° C. (50 μL, 20 mM)
Procedure: as §4, §2, §3

[5] = Specificity of probe with different reactive oxygen species: fluorescence change with superoxide; conditions: ss-6 20 μM, phosphate buffer pH 7.4; Xanthine Oxidase then Xanthine (50 μL, 20 mM)
Procedure: as §4, §2, §3

[6] = Specificity of probe with different reactive oxygen species: fluorescence change with H2O2; conditions: ss-6 20 μM, phosphate buffer pH 7.4; 10 equiv
Procedure: as §4, §2, §3

[7] = Fluorescence spectrum after reaction of probe with 15 equiv ONOO−; conditions: ss-6 20 μM, 30 min, room temperature, excitation 515 nm, FIG. 9 vs FIG. 8
Procedure: as §1
Subsequently, 15 equiv of ONOO^− solution with different concentration was slowly added to a 20 μM ss-6 solution with vigorous stirring at room temperature. […] The changes in fluorescence intensity were measured after 30 min. The excitation spectrum and the fluorescence spectrum of the solution after the completion of the reaction were measured using the same conditions as described above.
Compound ss-12 obtained in Example 5 was dissolved in CH3CN to a concentration of 2 mM, and then the solution was added a 100 mM sodium phosphate buffer (pH 7.4) for dissolution at a final concentration of 20 μM. The excitation spectrum and the fluorescence spectrum of the 20 μM ss-12 solution were measured using a Perkin Elmer® LS50 fluorescence spectrometer. […]

[8] = Specific detection of peroxynitrite: fluorescence versus ONOO− concentration; conditions: probe 20 μM, pH 7.4, after 30 mins
Procedure: (§6) Compound ss-6 obtained in Example 1 was dissolved in CH3CN to a concentration of 2 mM, and then the solution was added with a 100 mM sodium phosphate buffer (pH 7.4) for dissolution at a final concentration of 20 μM. Then peroxynitrite was added to final concentrations of 0, 20, 60, 100, 200, 240 and 300 μM, and the fluorescence spectrum was measured after 30 mins. The fluorescence spectrum was measured under the same conditions as those in Example 2.
as §6, with “Compound ss-12” for “Compound ss-6”, “Example 5” for “Example 1”, “Example 6.” for “Example 2.”

[9] = system: primary cultured cortex neurons; assay: Cell assay: fluorescent microscopy of intracellular ONOO− production after SIN-1; format: cell-based, Sprague-Dawley rats; conditions: probe 20 μM for 15 mins, then 10 and 100 μM SIN-1 for 15 mins; fluorescent microscopy (FIG. 24)
Procedure: Throughout this study, primary cultured cortex neurons were prepared from embryonic day 15 Sprague-Dawley rats. Briefly, dissociated cell suspensions were plated at a density of 2×10^6 cells/well on poly-L-lysine-coated 6-well plates (BD Biosciences, San Diego, Calif., USA) with Neurobasal/2% B27 (Gibco-BRL, Grand Island, N.Y.) containing glutamine (0.5 mM, Sigma Chemical Company, St. Louis, Mo.), penicillin (100 U/mL) and streptomycin (100 μg/mL). The cells were maintained in a humidified incubator at 37° C., in 5% CO2-95% air. On the tenth day, cultured cortical cells were used for experimentation. The primary cultured neuronal cells were incubated with the ss-6 and ss-12 at the concentration of 20 μM for 15 mins and then washed with sodium phosphate buffer (100 mM, pH 7.4) for 3 times. After that, the cells were treated with 10 and 100 μM SIN-1 (3-Morpholino-sydnonimine-HCl) for 15 mins. After washed with sodium phosphate buffer (100 mM, pH 7.4), the cells were observed under fluorescent microscopy.

Substance: N,N-diethyl-8-[2-methoxy-(4,4,4-trifluoro-3-oxobutyl)phenyl]-4,4-difluoro-4-bora-3a,4a-diaza-s-indacene-3,5-dicarboxamide [ss-6]
- selectivity for peroxynitrite over other reactive oxygen species ([1]; probe 20 μM, phosphate buffer pH 7.4, conclusion from Tables 1 and 2): very high selectivity
- changes in fluorescence intensity before and after the treatment, ONOO^− ([1]; ss-6 20 μM, 100 mM sodium phosphate buffer pH 7.4, 10 equiv ROS, excitation 515 nm): 750%
- changes in fluorescence intensity before and after the treatment, SIN-1 [2]: 166%
- changes in fluorescence intensity before and after the treatment, •OH [3]: 2%
- changes in fluorescence intensity before and after the treatment, 1O2 [4]: 3%
- changes in fluorescence intensity before and after the treatment, O2•− [5]: −1%
- changes in fluorescence intensity before and after the treatment, H2O2 [6]: −5%
- change in fluorescence intensity after reaction with ONOO− [7]: Dramatic increase
- increase in fluorescence intensity with peroxynitrite ([8]; peroxynitrite 0, 20, 60, 100, 200, 240 and 300 μM): great increase
- relationship of fluorescence intensity with the concentration of ONOO− ([8]; peroxynitrite 0-300 μM): good linear relationship
- measurement of intracellular ONOO− production [9]: satisfactory results
